The source of these data is publication PMC10135050, “Neutralizing Carbapenem Resistance by Co-Administering Meropenem with Novel β-Lactam-Metallo-β-Lactamase Inhibitors” (Antibiotics, 2023).

A value given as a limit tells only on which side of the number the result lay.

As usually defined, the IC50 is the concentration at which inhibition is half-maximal. Lower therefore signals higher potency.

One data set has as its system HepG2 cells. In words: LDH membrane leakage assay. In kind it is cell-based, human. How it is done: HepG2 cells were cultured in 25 mL cell culture flasks using Eagle’s minimum essentials medium (EMEM) supplemented with 10% fetal bovine serum, 1% pen-strep-fungizone and 1% L-glutamine, maintained in a humidified incubator (37 °C, 5% CO2) until approximately 80% confluence.
The LDH assay was used to assess membrane damage of HepG2 cells. Supernatant collected from control and BP2 treated cells were centrifuged (400× g, 24 °C, 10 min) and dispensed (100 μL/well) in triplicate into a 96-well microtiter plate. LDH reagent (100 μL, 11644793001, Sigma Aldrich, Schnelldorf, Germany) was added to each well. The plate was incubated for 30 min at room temperature in the dark. Absorbance was read using a spectrophotometer (Bio-Tek μQuant,) at […]. Results are represented as relative fold change compared to untreated control.

The nature of data set [1]: Plasma drug concentrations in the in vivo efficacy study. To be noted: male, mouse, 100 mg/kg IP every two hours, infected BALB/c mice. How it is done:
A murine thigh infection model described by Michail et al. was performed with minor modifications. Male Bragg inbred albino c-strain (BALB/c) mice weighing 20–25 g (n = 90) were used in this study. Each of the three groups constituted n = 30 mice, with n = 6 mice receiving treatment every two hours. Prior to infection, mice were IP treated with 150 mg/kg cyclophosphamide on day one and 100 mg/kg on day four of the trial. This was performed to induce neutropenia in the mice. Neutropenia was confirmed by a neutrophil count of <100/mm^3. On day five of the trial, 0.1 mL inoculum containing 10^6–10^8 cfu/mL of K. pneumoniae NDM were IM injected into the right thigh of the mice to initiate infection. Meropenem monotherapy, BP2 + meropenem combination therapy, or normal saline was administered every two hours in an eight-hour treatment period. Mice were euthanized by isoflurane overdose at 2 h, 4 h, 6 h and 8 h post dosing. The right thigh muscle was then aseptically removed and homogenized in 5 mL PBS. Homogenates were spread onto Mueller–Hinton agar and MacConkey agar plates, followed by incubation at 35 °C for 24 h and enumeration of the cfu/mL.
A Shimadzu Nexera Series (Shimadzu Corporation, Kyoto, Japan) liquid chromatography system was coupled with Shimadzu LCMS-8050 tandem mass spectrometer (Shimadzu, Kyoto, Japan). The chromatographic separation was achieved using a Shim-Pack Velox SP-C18 column (100 mm × 2.1 mm, 2.7 µm particle size) with a gradient mobile phase comprised of Millipore water (0.1% v/v trifluoroacetic acid) (A) and Acetonitrile (0.1% v/v trifluoroacetic acid) (B). The gradient method started from 5 to 95% B in 8 min, then held at 95% B for up to 12 min; thereafter, it was brought back to 5% B at 12.1 min. The column was equilibration time was 2.9 min with a flow rate of 0.4 mL min^−1 and the column oven temperature at 40 °C. The injection volume was 25 µL, and the total run time of the method was 15 min. Quantitative and qualitative studies were conducted using MRM mode via an ESI interface, with the following source parameters: nitrogen nebulizer gas flow 3 L/min; heat gas 10 L/min and interface temperature of 300 °C. The precursor and product ions optimized were m/z 813.2→330.0 for BP2, m/z 384.50→68.25 for meropenem and m/z 350.50→304.40 for Ampicillin (IS). Results were analyzed using LabSolutions Insight LCMS. All data are expressed as a mean ± SD.
Figure 6 Plasma BP2 and meropenem concentrations over the eight-hour treatment period. BALB/c mice were infected intramuscularly (IM) in the right thigh with 10^6–10^8 K. pneumoniae NDM cfu/mL. Treatment was initiated two hours post infection with either S, M, or BP2. Four treatment doses were administered via intraperitoneal (IP) injection every two hours. Data are presented as a mean ± SD (n = 6). Meropenem-only (red triangle)—animals treated with meropenem only, Meropenem with BP2 (red circles)—meropenem concentration when animals were treated with the BP2 combination. BP2 with meropenem (green square)—concentration of BP2 when animals were treated with the meropenem combination.

The next data set deals with T1, VIM-2 (Escherichia coli, UniProt Q5U7L7).
T1 construct: purchased RayBiotech (RayBiotech Life Inc., Peachtree Corners, GA, USA)
In words: Enzyme inhibition kinetics (nitrocefin). In kind it is biochemical. Here is the method: (§1) The IC50 was calculated from the generated sigmoidal curves (Figure S1) using GraphPad Prism software version 8.0.2 (GraphPad Inc., San Diego, CA, USA), and the Ki app was calculated using the Cheng–Prusoff equation [43]. […] However, we expect that inhibitors that remove one Zn atom from the enzyme active site will be slow-acting irreversible inhibitors that would require a more detailed kinetic analysis than used here. […] Structurally, BP2 is a thiazole-containing compound, while BP1 lacks this moiety. It is unclear whether the increased inhibition activity is due to the longer distance between the chelator moiety and the lactam moiety, which is less likely to sterically hinder the chelator, or if it is the thiazole itself that boosts the interaction efficacy of the compound.
(§2) A dose-dependent enzyme inhibition assay was performed using a Biotek PowerWave XS2 (Biotek Instruments Inc., Winooski, VT, USA) plate reader. NDM-1 and VIM-2 enzymes were purchased from RayBiotech (RayBiotech Life Inc., Peachtree Corners, GA, USA). Enzymes in the quantity of 1 nM (NDM-1) or 0.5 nM (VIM-2) were used in this study with a fixed nitrocefin concentration of either 120 µM (NDM-1) or 50 µM (VIM-2) and varying BP2 concentrations ranging from 5 to 200 µM (NDM-1) and 2.5 to 300 µM (VIM-2) in 50 mM HEPES buffer supplemented with 100 µg/mL BSA and 10 µM ZnCl2. Inhibition was measured at 482 nm at 25 °C.

The target in another data set is T2, NDM-1 (Klebsiella pneumoniae, UniProt C7C422).
T2 construct: purchased RayBiotech (RayBiotech Life Inc., Peachtree Corners, GA, USA)
Description: Enzyme inhibition kinetics (nitrocefin). In kind it is biochemical. Here is the method:
as §1, §2

In a further data set the test system is K. pneumoniae NDM. In words: Time-kill study. In kind it is cell-based. To be noted: meropenem monotherapy. How it is done:
Time-kill studies were performed according to previously published methods, including those described by CLSI document M26-A [62]. Briefly, an overnight culture of K. pneumoniae NDM was diluted to a 0.5 McFarland standard that correlated to approximately […]. The prepared bacterial suspensions were added to 96-well plates containing a fixed dose of 32 mg/L of BP2 and meropenem in concentrations of 0.5, 1 or 2 mg/L. Plates were incubated at 35 °C and 100 rpm shaking. A bacterial control without adding any drugs was included, and a meropenem-only control employing similar conditions. Viability counts were performed at 0, 2, 4, 6, 8, and 24 h by sampling 0.1 mL, diluting as appropriate, and spreading onto Mueller Hinton agar (MHA). These plates were incubated at 35 °C for at least 18 h. Colonies were enumerated as cfu/mL.

T2 sequence (C7C422 29-270, looked up, species assumed): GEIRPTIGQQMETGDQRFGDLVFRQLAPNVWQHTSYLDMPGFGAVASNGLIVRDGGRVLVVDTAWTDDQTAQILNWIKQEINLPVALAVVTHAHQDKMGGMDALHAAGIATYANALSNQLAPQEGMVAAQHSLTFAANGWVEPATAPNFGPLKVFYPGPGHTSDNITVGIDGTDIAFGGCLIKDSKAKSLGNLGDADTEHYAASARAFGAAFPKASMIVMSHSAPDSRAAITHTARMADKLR

For `CON=C(C(=O)NC1C(=O)N2C(C(=O)O)=C(COC(C)=O)CSC12)c1csc(NC(=O)CC(C(=O)OC)N2CCN(CC(=O)O)CCN(CC(=O)O)CC2)n1` (stereo in doubt) [BP2], the LDH levels entry in the data set on HepG2 cells (HepG2, 1 µg/mL) is recorded as “remained unaffected”. The LDH membrane leakage result with HepG2 cells (HepG2, 8 µg/mL–200 µg/mL) was “significantly decreased”. In addition, the “Cell membrane integrity (LDH leakage)” value in the data set on HepG2 cells (HepG2, all concentrations tested) is “not disrupted”. Besides, in data set [1], the concentration at 2 h is 2670 ng/mL, the concentration at 4 h was 6970 ng/mL, the concentration at 6 h amounted to 4430 ng/mL and the concentration at 8 h came out at 3490 ng/mL. For the same compound, at VIM-2 (VIM-2 0.5 nM, nitrocefin 50 µM, mean ± SD), the midpoint of inhibition, the IC50, lay at 57.1 ± 2.9 µM. The Ki on VIM-2 (VIM-2, Cheng–Prusoff equation, read-out: Ki app) is 30.9 µM. The same compound displayed an IC50 on NDM-1 (NDM-1 1 nM, nitrocefin 120 µM, mean ± SD) of 70.7 ± 4.5 µM. Also, at NDM-1 (NDM-1, Cheng–Prusoff equation, read-out: Ki app), the Ki was found to be 35.3 µM.

Take `C[C@@H](O)[C@H]1C(=O)N2C(C(=O)O)=C(S[C@@H]3CN[C@H](C(=O)N(C)C)C3)[C@H](C)[C@H]12` [Meropenem]: in data set [1], the concentration at 2 h was determined as 7060 ng/mL, the concentration at 4 h was found to be 27500 ng/mL, the concentration at 6 h came to 14900 ng/mL and the concentration at 8 h worked out at 8840 ng/mL. For the same compound, the “Increase in bacteria compared to the BP2 + meropenem-treated group” value in the data set with K. pneumoniae NDM is listed as above 2 log10.
